Test results published in patent US20240082125A1, “USE OF A SHORT CHAIN FATTY ACID AS ANTIDANDRUFF AGENT” (NANYANG TECHNOLOGICAL UNIVERSITY, priority 2020, published 2024).
Several values for one entry are separate records, joined by “and”; a condition that tells them apart may be missing. Equal entries are not always repeated.

Legend:
[1] = test system: M. restricta ATCC MYA-4611; assay: M. restricta growth assay, total cell numbers by SYTO9 fluorescence; assay type: cell-based, Malassezia restricta
Procedure: (§1) M. restricta ATCC MYA-4611, S. epidermidis ATCC 12228, and C. acnes ATCC 6919 were purchased from ATCC. M. restricta was routinely cultured in modified Dixon (MD) medium (pH 6), composed of 36 g of Malt extract (Sigma 70167), 20 g of Dessicated Oxbile (Sigma 70168), 6 g of Bacto™ Peptone (BD 211677), 1% (v/v) Tween 40 (Sigma P1504), 0.2% (v/v) Oleic Acid (Fluka 75096), and 0.2% (v/v) Glycerol (Promega H5433) in 1 liter of dH2O. C. acnes and S. epidermidis were cultured in modified brain heart infusion (MBHI) medium (pH 7), containing 37 g of BHI base (Accumedia 7116B), 0.4% (v/v) of Tween-40 (Sigma P1504), 0.2% (v/v) of Oleic acid (Fluka 75096), and 0.2% (v/v) of Glycerol (Promega H5433) in 1 liter of dH2O. M. restricta and S. epidermidis were routinely grown under aerobic conditions, shaken at 200 rpm, and C. acnes was grown under anaerobic conditions. All organisms were grown at 33° C. Wherever required, media was supplemented with: sodium acetate (CH3COOH, Sigma Ref. 32319), sodium propionate ([…], Sigma Ref. P1880), sodium butyrate (CH3(CH2)2COOH, Sigma Ref. 303410), valeric acid (CH3(CH2)3COOH, Fluka Ref. 75054). For valeric acid, the pH in modified cell media was neutralized with NaOH (Sodium hydroxide, Sigma 283060).
M. restricta cells from 1 ml of the culture were harvested by centrifugation at 10,000×g for 5 minutes at room temperature. Cells were washed once, pelleted, and re-suspended in 0.9% NaCl solution. Equal volumes of the above cell suspension and SYTO 9 working stock (3 ul SYTO 9 component of the Live/Dead BacLight bacterial viability kit, ThermoFisher Scientific, L7012, diluted in 1 ml of 0.9% NaCl solution) were mixed well, incubated in dark for 10 minutes, and fluorescent intensity unit was measured in a Tecan microplate reader with excitation/emission wavelengths of 485/530 nm. A standard for correlation of fluorescence units and concentration was prepared using a fluorimeter and hemocytometer under a light microscope. This standard curve was used to calculate the total cell numbers.
(§2) M. restricta cells stored as glycerol stocks (30% glycerol in MD medium) were revived by plating on MD agar plates and incubated for 2-3 days at 33° C. A pre-culture was made from the lawn of cells grown on the agar plate. Cells from % of the plate was scrapped off, homogenized after suspending in 70 ml of MD medium in a 250 ml baffled erlenmeyer flask and incubated for 24 hours at 33° C. at 200 rpm. For experiments, 10^7 cell/ml was inoculated in fresh MD medium with or without the short chain fatty acids. Growth was monitored by measuring the cell density with SYTO 9 for up to 24 hours or 96 hours. C. acnes and S. epidermidis were inoculated into MBHI medium at starting cell density of OD600 0.05 and 0.25, respectively. Bacterial growth was measured by plating the serially diluted cultures on Brain Heart Infusion agar plates at different time points and colonies were counted after 72 hours for C. acnes and 24 hours for S. epidermidis.
M. restricta ATCC MYA-4611, S. epidermidis ATCC 12228 and C. acnes ATCC 6919 were purchased from ATCC. M. restricta were routinely cultured in Modified Dixon (MD) medium (pH 6), composed of 36 g of Malt extract (Sigma 70167), 20 g of Dessicated Oxbile (Sigma 70168), 6 g of Bacto™ Peptone (BD 211677), 1% (v/v) Tween 40 (Sigma P1504), 0.2% (v/v) Oleic Acid (Fluka 75096), and 0.2% (v/v) Glycerol (Promega H5433) in 1 liter of dH2O. C. acnes and S. epidermidis were cultured in modified brain heart infusion (MBHI) medium (pH 7), containing 37 g of BHI base (Accumedia 7116B), 0.4% (v/v) of Tween-40 (Sigma P1504), 0.2% (v/v) of Oleic acid (Fluka 75096), and 0.2% (v/v) of Glycerol (Promega H5433) in 1 liter of dH2O. M. restricta and S. epidermidis were routinely grown under aerobic conditions, shaken at 200 rpm, and C. acnes was grown under anaerobic conditions. All organisms were grown at 33° C.

C. acnes ATCC 6919 [2] = assay: C. acnes growth assay, colony forming units; assay type: cell-based, Cutibacterium acnes
Procedure: as §1, §2
(§3) Bacterial growth was quantified by plating the serially diluted cultures on Brain Heart Infusion agar plates at different time points and colonies were counted after 72 hours for C. acnes and 24 hours for Staphylococcus sp.
(§4) M. restricta ATCC MYA-4611, S. epidermidis ATCC 12228 and C. acnes ATCC 6919 were purchased from ATCC. M. restricta were routinely cultured in Modified Dixon (MD) medium (pH 6), composed of 36 g of Malt extract (Sigma 70167), 20 g of Dessicated Oxbile (Sigma 70168), 6 g of Bacto™ Peptone (BD 211677), 1% (v/v) Tween 40 (Sigma P1504), 0.2% (v/v) Oleic Acid (Fluka 75096), and 0.2% (v/v) Glycerol (Promega H5433) in 1 liter of dH2O. C. acnes and S. epidermidis were cultured in modified brain heart infusion (MBHI) medium (pH 7), containing 37 g of BHI base (Accumedia 7116B), 0.4% (v/v) of Tween-40 (Sigma P1504), 0.2% (v/v) of Oleic acid (Fluka 75096), and 0.2% (v/v) of Glycerol (Promega H5433) in 1 liter of dH2O. M. restricta and S. epidermidis were routinely grown under aerobic conditions, shaken at 200 rpm, and C. acnes was grown under anaerobic conditions. All organisms were grown at 33° C. Wherever required, media was supplemented with 50 mM of: sodium propionate ([…], Sigma Ref. P1880), sodium butyrate (CH3(CH2)2COOH, Sigma Ref. 303410), valeric acid (CH3(CH2)3COOH, Fluka Ref. 75054). For valeric acid, the pH in modified cell media was neutralized with NaOH (Sodium hydroxide, Sigma 283060).
(§5) M. restricta cells stored as glycerol stocks (30% glycerol in MD medium) were revived by plating on MD agar plates and incubated for 2-3 days at 33° C. A pre-culture was made from the lawn of cells grown on the agar plate.

[3] = test system: S. epidermidis ATCC 12228; assay: S. epidermidis growth assay, colony forming units; assay type: cell-based, Staphylococcus epidermidis
Procedure: as §1, §2, §3, §4, §5

C. acnes ATCC 6919 [4] = assay: Co-culture assay: C. acnes growth with S. epidermidis biofilm in aerobic condition; assay type: cell-based, Cutibacterium acnes; details: monitored 24, 48 and 72 hours, FIG. 8
Procedure: S. epidermidis ATCC 12228, and C. acnes ATCC 6919 were purchased from ATCC. C. acnes and S. epidermidis were cultured in modified brain heart infusion (MBHI) medium (pH 7), containing 37 g of BHI base (Accumedia 7116B), 0.4% (v/v) of Tween-40 (Sigma P1504), 0.2% (v/v) of Oleic acid (Fluka 75096), and 0.2% (v/v) of Glycerol (Promega H5433) in 1 liter of dH2O. S. epidermidis was routinely grown under aerobic conditions, shaken at 200 rpm, and C. acnes was grown under anaerobic conditions. All organisms were grown at 33° C. Wherever required, media was supplemented with: sodium propionate ([…], Sigma Ref. P1880),
C. acnes and S. epidermidis were inoculated in MBHI media at starting cell density of OD600 0.05 and 0.25 respectively. Bacterial growth was measured by plating the serially diluted cultures on Brain Heart Infusion agar plates at different time points and colonies were counted after 72 hours for C. acnes and 24 hours for S. epidermidis.
For co-cultures, equal volumes of exponentially growing cells of the two species were mixed at cell density of 10^5 cells per ml in 24-well glass bottom plates. Growth of each species in co-cultures was quantified by plating the culture suspension on agar medium. […]

Compound: CCC(=O)[O-].[Na+] [NaP, sodium propionate]
- growth of Malassezia restricta ([1]; 30 mM, MD medium pH 6, FIG. 1): completely inhibit
- M. restricta (log10 total cell counts) ([1]; 50 mM, after 72 hours, SYTO9, starting density 1×10^7 cells/ml, replicates #1-#3): 6.95 log10 total cell counts and 6.79 log10 total cell counts and 6.82 log10 total cell counts
- growth of C. acnes (C. acnes ATCC 6919 [2]; 30 mM, MBHI medium pH 7, anaerobic, FIG. 2): do not affect
- C. acnes (log10 CFUs/ml) (C. acnes ATCC 6919 [2]; 50 mM, after 72 hours, replicates #1-#3): 7.82 log10 CFUs/ml and 8.34 log10 CFUs/ml and 8.29 log10 CFUs/ml
- growth of S. epidermidis ([3]; 30 mM, MBHI medium pH 7, aerobic, FIG. 3): do not affect
- S. epidermidis (log10 CFUs/ml) ([3]; 50 mM, after 24 hours, replicates #1-#3): 9.16 log10 CFUs/ml and 8.82 log10 CFUs/ml and 9.00 log10 CFUs/ml
- C. acnes growth in co-culture with S. epidermidis (C. acnes ATCC 6919 [4]): augmented
